The term IC90 denotes the point of the concentration-response curve where the effect stands at 90%. Low values mean an effect from little substance, high ones a need for much substance.

This note sets out measurements from patent US12054494B2, “Compound with anticancer activity” (KYOWA KIRIN CO., LTD., priority 2018, dated 2024).

For this assay, the system named is SU-DHL-4 cells. Put plainly: Inhibitory effect on cell viability (Cell Counting Kit-8). It is filed as cell-based. The following applies: Homo sapiens, 72 hours culture with test compound, concentration showing 90% inhibition rate of cell viability. The gist of the method:
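IC90 corresponds to 90% loss of viability, measured as CCK-8 absorbance at 450 nm (2-3 h colour development). Compounds in 9 dilutions (0.1% DMSO) were applied for 72 h at 37° C to SU-DHL-4 lymphoma cells seeded at 2000/well in RPMI1640/10% FBS after 18-25 h preculture.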

Regarding `Cc1sc2c(c1C)C(c1ccc(NC(=O)C#CCNC(=O)c3ccc(C4=NCc5nnc(C)n5-c5sc(C)c(C)c54)cc3)cc1)=NCc1nnc(C)n1-2` [Compound 14e, N-(4-Oxo-4-((4-(2,3,9-trimethyl-6H-thieno[3,2-f][1,2,4]triazolo[4,3-a][1,4]diazepin-4-yl)phenyl)amino)but-2-yn-1-yl)-4-(2,3,9-trimethyl-6H-thieno[3,2-f][1,2,4]triazolo[4,3-a][1,4]diazepin-4-yl)benzamide], the IC90 is 0.26 nM.

The molecule `CCC(=O)N1c2ccccc2[C@H](Nc2ccc(NC(=O)CNC(=O)Nc3ccc(C4=NCc5nnc(C)n5-c5sc(C)c(C)c54)cc3)cc2)C[C@@H]1C` [Compound 14f, N-(4-(((2S,4R)-2-Methyl-1-propionyl-1,2,3,4-tetrahydroquinolin-4-yl)amino)phenyl)-2-(3-(4-(2,3,9-trimethyl-6H-thieno[3,2-f][1,2,4]triazolo[4,3-a][1,4]diazepin-4-yl)phenyl)ureido)acetamide] returned an IC90 of 0.31 nM. In the case of `CCC(=O)N1c2ccccc2[C@H](Nc2ccc(C(=O)NCC#CC(=O)Nc3ccc(C4=NCc5nnc(C)n5-c5sc(C)c(C)c54)cc3)cc2)C[C@@H]1C` [Compound 14g, 4-(((2S,4R)-2-Methyl-1-propionyl-1,2,3,4-tetrahydroquinolin-4-yl)amino)-N-(4-oxo-4-((4-(2,3,9-trimethyl-6H-thieno[3,2-f][1,2,4]triazolo[4,3-a][1,4]diazepin-4-yl)phenyl)amino)but-2-yn-1-yl)benzamide] it was 0.03 nM; in that of `CCC(=O)N1c2ccccc2[C@H](Nc2ccc(NC(=O)NCC(=O)Nc3ccc(C4=NCc5nnc(C)n5-c5sc(C)c(C)c54)cc3)cc2)C[C@@H]1C` [Compound 14h, 2-(3-(4-(((2S,4R)-2-Methyl-1-propionyl-1,2,3,4-tetrahydroquinolin-4-yl)amino)phenyl)ureido)-N-(4-(2,3,9-trimethyl-6H-thieno[3,2-f][1,2,4]triazolo[4,3-a][1,4]diazepin-4-yl)phenyl)acetamide], 0.34 nM; in that of `CCC(=O)N1c2ccccc2[C@H](Nc2ccc(NC(=O)C#CCNC(=O)c3ccc(C4=NCc5nnc(C)n5-c5sc(C)c(C)c54)cc3)cc2)C[C@@H]1C` [Compound 14i, N-(4-((4-(((2S,4R)-2-Methyl-1-propionyl-1,2,3,4-tetrahydroquinolin-4-yl)amino)phenyl)amino)-4-oxobut-2-yn-1-yl)-4-(2,3,9-trimethyl-6H-thieno[3,2-f][1,2,4]triazolo[4,3-a][1,4]diazepin-4-yl)benzamide], 0.03 nM. The figure for `CCC(=O)N1c2ccccc2[C@H](Nc2ccc(C(=O)NCc3ccc(-c4ccc(C5=NCc6nnc(C)n6-c6sc(C)c(C)c65)cc4)s3)cc2)C[C@@H]1C` [Compound 14j, 4-(((2S,4R)-2-Methyl-1-propionyl-1,2,3,4-tetrahydroquinolin-4-yl)amino)-N-((5-(4-(2,3,9-trimethyl-6H-thieno[3,2-f][1,2,4]triazolo[4,3-a][1,4]diazepin-4-yl)phenyl)thiophen-2-yl)methyl)benzamide] is 0.74 nM. Turning to `CCC(=O)N1c2ccccc2[C@H](Nc2ccc(C(=O)NC3CN(C(=O)c4ccc(C5=NCc6nnc(C)n6-c6sc(C)c(C)c65)cc4)C3)cc2)C[C@@H]1C` [Compound 14k, 4-(((2S,4R)-2-Methyl-1-propionyl-1,2,3,4-tetrahydroquinolin-4-yl)amino)-N-(1-(4-(2,3,9-trimethyl-6H-thieno[3,2-f][1,2,4]triazolo[4,3-a][1,4]diazepin-4-yl)benzoyl)azetidin-3-yl)benzamide], the 90% effect level (IC90) was put at 1.8 nM. In the case of `CCC(=O)N1c2ccccc2[C@H](Nc2ccc(C(=O)NCCC(=O)Nc3ccc(C4=NCc5nnc(C)n5-c5sc(C)c(C)c54)cc3)cc2)C[C@@H]1C` [Compound 14m, 4-(((2S,4R)-2-Methyl-1-propionyl-1,2,3,4-tetrahydroquinolin-4-yl)amino)-N-(3-oxo-3-((4-(2,3,9-trimethyl-6H-thieno[3,2-f][1,2,4]triazolo[4,3-a][1,4]diazepin-4-yl)phenyl)amino)propyl)benzamide] it was 1.45 nM.
